ChEMBL document CHEMBL1201862, “PubChem BioAssay data set” (2004)
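In this assay, cells in 96-well plates receive the compound at five concentrations for 48 hours. Endpoints are linearly interpolated between the surrounding concentrations. GI50 = concentration required for 50% inhibition of growth.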 Calls of active or inactive are those of the source. Cut-off read from the data, not from the text of the source: active = GI50 up to about 1.1 µM and inactive = higher.

How the values were obtained:
Experiment in all cases: NCI anticancer screen, dose series, 48 h
DLD-1 = system: DLD-1
KM-20L2 = system: KM-20L2
HOP-18 = system: HOP-18
RXF 631 = system: RXF 631
SNB-78 = system: SNB-78
LXFL 529 = system: LXFL 529
DMS-114 = system: DMS-114
DMS-273 = system: DMS-273
XF498 = system: XF498

| SMILES | GI50 (DLD-1) | GI50 (KM-20L2) | GI50 (HOP-18) | GI50 (RXF 631) | GI50 (SNB-78) | GI50 (LXFL 529) | GI50 (DMS-114) | GI50 (DMS-273) | GI50 (XF498) |
| --- | --- | --- | --- | --- | --- | --- | --- | --- | --- |
| O=C(/C=C/c1ccc(OCC(=O)N2CCN(c3ccccc3)CC2)cc1)c1ccc(Cl)cc1 | > 100 µM (inactive) | > 100 µM (inactive) | > 100 µM (inactive) | 34.8 µM (inactive) | 18.6 µM (inactive) | > 92 µM (inactive) | > 65.3 µM (inactive) | 55 µM (inactive) | – |
| COc1cc(CCc2cccnc2)cc(OC)c1OC | > 100 µM (inactive) | > 100 µM (inactive) | > 100 µM (inactive) | – | > 100 µM (inactive) | > 100 µM (inactive) | 77.4 µM (inactive) | > 100 µM (inactive) | – |
| NC(=O)C(=O)N/N=C1\C(=O)N(c2ccc(Cl)cc2Cl)C(=O)C1C(=O)Nc1ccc(Cl)cc1Cl (configuration not stated) | > 100 µM (inactive) | > 100 µM (inactive) | 76.9 µM (inactive) | – | > 100 µM (inactive) | > 100 µM (inactive) | > 100 µM (inactive) | > 100 µM (inactive) | > 100 µM (inactive) |
| N#CC(c1ccc(Cl)cc1)c1cccc(Cl)n1 (configuration not stated) | 83 µM (inactive) | 80.4 µM (inactive) | – | – | 67.3 µM (inactive) | 30.3 µM (inactive) | – | – | 24.8 µM (inactive) |
| CCOC(=O)[C-]([N+]#N)[Si](C)(C)C | > 100 µM (inactive) | > 100 µM (inactive) | > 100 µM (inactive) | – | > 100 µM (inactive) | – | > 100 µM (inactive) | > 100 µM (inactive) | 56.9 µM (inactive) |
| N#CC1(C=O)c2ccccc2C=CN1C(=O)c1ccccc1 (configuration not stated) | – | 43.6 µM (inactive) | 41.4 µM (inactive) | 56.5 µM (inactive) | 78.7 µM (inactive) | 33.3 µM (inactive) | 19.8 µM (inactive) | 49.2 µM (inactive) | 22 µM (inactive) |
| C=C(C)C1CC=C(C(=O)O)CC1 (configuration not stated) | 1490 µM (inactive) | 1410 µM (inactive) | – | 839 µM (inactive) | – | 1490 µM (inactive) | 1360 µM (inactive) | 1340 µM (inactive) | – |
| CC(=O)Nc1c(Nc2ccccc2)[nH]c(C)nc1=S | > 100 µM (inactive) | > 100 µM (inactive) | – | – | > 100 µM (inactive) | > 100 µM (inactive) | > 100 µM (inactive) | > 100 µM (inactive) | > 100 µM (inactive) |
| Cc1ccc(Sc2ccc(C)cc2[N+](=O)[O-])c([N+](=O)[O-])c1 | – | > 100 µM (inactive) | > 100 µM (inactive) | – | > 100 µM (inactive) | > 100 µM (inactive) | > 100 µM (inactive) | > 100 µM (inactive) | > 100 µM (inactive) |
| NC(=S)N/N=C/c1cn(CCCl)c2ccccc12 | 71.9 µM (inactive) | – | 61.9 µM (inactive) | – | > 100 µM (inactive) | 39.7 µM (inactive) | 21.9 µM (inactive) | – | – |
| Cc1cc(=O)n(-c2ccccc2)c(=O)o1 | > 100 µM (inactive) | > 100 µM (inactive) | > 100 µM (inactive) | – | > 100 µM (inactive) | > 100 µM (inactive) | > 100 µM (inactive) | > 100 µM (inactive) | – |
| CC(=O)OCC1OC(N2C(=O)C(=O)c3ccccc32)C(OC(C)=O)C(OC(C)=O)C1OC(C)=O (configuration not stated) | > 100 µM (inactive) | > 100 µM (inactive) | > 10 µM (inactive) | > 100 µM (inactive) | – | > 100 µM (inactive) | > 100 µM (inactive) | > 100 µM (inactive) | – |
| CC12CP(=O)(c3ccccc3)CC1C2(Cl)Cl (configuration not stated) | > 100 µM (inactive) | > 100 µM (inactive) | > 100 µM (inactive) | – | > 100 µM (inactive) | > 100 µM (inactive) | > 100 µM (inactive) | > 100 µM (inactive) | > 100 µM (inactive) |
| COc1cc(NS(C)(=O)=O)ccc1Nc1c2ccccc2nc2c1[nH]c1ccc(NC3OC(CO)C(O)C(O)C3O)cc12 (configuration not stated) | 0.293 µM (active) | 0.163 µM (active) | 0.048 µM (active) | – | 1.27 µM (inactive) | 0.9 µM (active) | < 0.01 µM (active) | < 0.01 µM (active) | – |
| CN1C/C(=C\c2ccccc2)C2=NN(C(N)=S)[C@H](c3ccccc3)[C@@H]2C1 | 53.7 µM (inactive) | 55.6 µM (inactive) | – | – | 28.1 µM (inactive) | 29.4 µM (inactive) | – | 47.4 µM (inactive) | > 100 µM (inactive) |
| O=C1C2C3C=C4c5ccccc5N(c5ccccc5)C4(C2C(=O)N1c1ccc(Cl)cc1)[C@H]1C(=O)N(c2ccc(Cl)cc2)C(=O)[C@@H]31 (some centres not stated) | > 100 µM (inactive) | > 100 µM (inactive) | > 100 µM (inactive) | 6.49 µM (inactive) | > 100 µM (inactive) | > 100 µM (inactive) | > 100 µM (inactive) | > 100 µM (inactive) | > 100 µM (inactive) |
| Cc1cccc(C)c1NC(=O)CCC(=O)CC(=O)C(C)C | > 100 µM (inactive) | > 100 µM (inactive) | > 100 µM (inactive) | – | > 100 µM (inactive) | > 100 µM (inactive) | > 100 µM (inactive) | > 100 µM (inactive) | > 100 µM (inactive) |
| Cc1c(Cl)ccc2[s+]snc12 | 25.4 µM (inactive) | > 100 µM (inactive) | 29 µM (inactive) | 33.4 µM (inactive) | 31 µM (inactive) | 29.6 µM (inactive) | – | 38.2 µM (inactive) | 25.3 µM (inactive) |
| O=C(Nc1ccccc1)n1cc(-c2ccccn2)c(N2CCOCC2)n1 | 6.61 µM (inactive) | 2.68 µM (inactive) | > 100 µM (inactive) | – | 24.9 µM (inactive) | 7.89 µM (inactive) | 5.36 µM (inactive) | 3.44 µM (inactive) | 9.23 µM (inactive) |
| COc1ccccc1/N=N/c1c(-c2ccccc2)nn(C(=O)CC(=O)Nc2cccc(C)c2)c1-c1ccccc1 | 25.8 µM (inactive) | 27.3 µM (inactive) | > 100 µM (inactive) | 7.4 µM (inactive) | 61.8 µM (inactive) | 15.4 µM (inactive) | 14.7 µM (inactive) | 34.5 µM (inactive) | 16.4 µM (inactive) |
| CC(C)OC(=O)C1Cc2c([nH]c3ccccc23)C(c2ccccc2)N1 (configuration not stated) | 23.6 µM (inactive) | > 100 µM (inactive) | – | – | > 100 µM (inactive) | 79.6 µM (inactive) | 52.4 µM (inactive) | > 100 µM (inactive) | > 100 µM (inactive) |
| C[N+](C)(C)CC(=O)N/N=C(\CCC(=O)NCCc1ccccc1)CC(=O)c1ccccc1 | > 100 µM (inactive) | > 100 µM (inactive) | > 100 µM (inactive) | – | > 100 µM (inactive) | > 100 µM (inactive) | > 100 µM (inactive) | > 100 µM (inactive) | > 100 µM (inactive) |
| CCOC12OC3=C(CC1CC1=C(CCC1=O)O2)C(=O)CC3 (configuration not stated) | > 100 µM (inactive) | > 100 µM (inactive) | > 100 µM (inactive) | > 100 µM (inactive) | > 100 µM (inactive) | > 100 µM (inactive) | > 100 µM (inactive) | > 100 µM (inactive) | – |
| COc1ccc([C@@H]2OC(=O)C3C2C(=O)O[C@H]3c2ccc(OC)cc2)cc1 (some centres not stated) | > 100 µM (inactive) | > 100 µM (inactive) | > 100 µM (inactive) | > 100 µM (inactive) | > 100 µM (inactive) | > 100 µM (inactive) | > 100 µM (inactive) | > 100 µM (inactive) | > 100 µM (inactive) |
| CC1OC(n2cc(C(F)(F)F)c(=O)[nH]c2=O)C=CC1=O (configuration not stated) | 18.8 µM (inactive) | 22.3 µM (inactive) | – | 12.7 µM (inactive) | 15.8 µM (inactive) | 17.1 µM (inactive) | – | – | 16.6 µM (inactive) |
| CCOC(=O)/C(C#N)=C1/C(O)=C(C(=O)OC)C(C(=O)OC)=C1C(=O)OC.c1ccncc1 | > 100 µM (inactive) | > 100 µM (inactive) | – | – | – | > 100 µM (inactive) | – | > 100 µM (inactive) | – |
| CC1=CC(=O)NP(=O)(Oc2ccc(C)cc2)N1 (configuration not stated) | > 100 µM (inactive) | > 100 µM (inactive) | > 100 µM (inactive) | > 100 µM (inactive) | > 100 µM (inactive) | > 100 µM (inactive) | > 100 µM (inactive) | > 100 µM (inactive) | > 100 µM (inactive) |
| O=C(C=P(c1ccccc1)(c1ccccc1)c1ccccc1)CC(=S)CC(=O)C=P(c1ccccc1)(c1ccccc1)c1ccccc1 | 4.58 µM (inactive) | 4.29 µM (inactive) | 2.59 µM (inactive) | > 100 µM (inactive) | – | 2.77 µM (inactive) | 3.41 µM (inactive) | 2.88 µM (inactive) | – |
| O=C1C2=C(CCCCC2)C2CCCCC12O (configuration not stated) | > 100 µM (inactive) | > 100 µM (inactive) | – | – | > 100 µM (inactive) | > 100 µM (inactive) | > 100 µM (inactive) | > 100 µM (inactive) | > 100 µM (inactive) |
| CC[C@H]1[C@@H](C)C=C[C@@H](C)N1S(=O)(=O)c1ccc(C)cc1 | – | > 100 µM (inactive) | – | 16.7 µM (inactive) | > 100 µM (inactive) | 73.8 µM (inactive) | 19.1 µM (inactive) | > 100 µM (inactive) | 14.1 µM (inactive) |
